Data set [1] can be described thus: Permeability across basolateral side to apical side in human Caco2 cells expressing p-gp at 3 uM incubated for 2 hrs by LC-MS/MS analysis. The class given is ADME, cell-based. To be noted: Caco-2, read-out: permeability.
Data set [2] can be described thus: Permeability of the compound at pH 7.4 by PAMPA. To be noted: read-out: permeability. The class given is ADME.
A short description of data set [3]: Efflux ratio of permeability from basolateral side to apical side over apical side to basolateral side in human Caco2 cells expressing p-gp at 3 uM incubated for 2 hrs by LC-MS/MS analysis. The class given is ADME, cell-based. To be noted: Caco-2.
Data set [4] in a line: Permeability across apical side to basolateral side in human Caco2 cells expressing p-gp at 3 uM incubated for 2 hrs by LC-MS/MS analysis. In kind it is ADME, cell-based. Conditions: Caco-2, read-out: permeability.
Data set [5] is described as follows: Stability in rat liver microsomes assessed as parent compound remaining. In kind it is ADME, Microsome. Background: Liver microsomes are a subcellular fraction often used to study metabolism.
Data set [6] can be described thus: Stability in human liver microsomes assessed as parent compound remaining. The class given is ADME, Microsome.
A short description of data set [7]: Cmax in cannulated Sprague-Dawley rat at 6 mg/kg, po administered via gastric gavage by LC-MS/MS analysis. In kind it is ADME, organism-based. Set-up: dose 6 mg/kg, route oral. To be noted: in vivo.
Data set [8] is described as follows: Half life in cannulated Sprague-Dawley rat at 2 mg/kg, iv administered as 10 mins infusion by LC-MS/MS analysis. The class given is ADME, organism-based. To be noted: in vivo.
Data set [9] in a line: Tmax in cannulated Sprague-Dawley rat at 6 mg/kg, po administered via gastric gavage by LC-MS/MS analysis. Conditions: in vivo. The class given is ADME, organism-based.
Data set [10] can be described thus: Half life in human liver microsomes. The class given is ADME, Microsome.
Data set [11] can be described thus: Drug level in cannulated Sprague-Dawley rat liver at 6 mg/kg, po administered via gastric gavage measured after 24 hrs by LC-MS/MS analysis. The class given is ADME, organism-based. Conditions: read-out: Drug uptake.
Data set [12] in a line: Volume of distribution at steady state in cannulated Sprague-Dawley rat at 2 mg/kg, iv administered as 10 mins infusion by LC-MS/MS analysis. In kind it is ADME, organism-based. To be noted: in vivo, read-out: Vdss.
A short description of data set [13]: Half life in rat liver microsomes. In kind it is ADME, Microsome.
Data set [14] in a line: Clearance in cannulated Sprague-Dawley rat at 2 mg/kg, iv administered as 10 mins infusion by LC-MS/MS analysis. The class given is ADME, organism-based. To be noted: in vivo.
Data set [15] is described as follows: Drug level in cannulated Sprague-Dawley rat liver at 6 mg/kg, po administered via gastric gavage measured after 5 hrs by LC-MS/MS analysis. The class given is ADME, organism-based. Conditions: read-out: Drug uptake.
A short description of data set [16]: AUC in cannulated Sprague-Dawley rat at 6 mg/kg, po administered via gastric gavage by LC-MS/MS analysis. The class given is ADME, organism-based. To be noted: in vivo.
Data set [17] is described as follows: Oral bioavailability in cannulated Sprague-Dawley rat at 6 mg/kg administered via gastric gavage by LC-MS/MS analysis. In kind it is ADME, organism-based. Conditions: in vivo.
Data set [18] can be described thus: Drug level in cannulated Sprague-Dawley rat plasma at 6 mg/kg, po administered via gastric gavage measured after 5 hrs by LC-MS/MS analysis. The class given is ADME, organism-based.

Structures are written as SMILES.

Regarding `CCN(c1cc2oc(-c3ccc(F)cc3)c(C(=O)NC)c2cc1-c1cc(F)c(F)c(C(=O)NC2(c3ncccn3)CC2)c1)S(C)(=O)=O`, the Papp B→A at 2 h, 3 µM in data set [1] amounted to 62.3 ×10⁻⁶ cm/s. Moreover, the Papp in data set [2] worked out at 73.1 ×10⁻⁶ cm/s. Further, the efflux ratio at 2 h, 3 µM in data set [3] is 7.8. In addition, the Papp A→B at 2 h, 3 µM in data set [4] was 7.9 ×10⁻⁶ cm/s.

Consider `CCN(C(=O)N(C)C)c1cc2oc(-c3ccc(F)cc3)c(C(=O)NC)c2cc1-c1ccc(OC)c(C(=O)NC2(c3ncccn3)CC2)c1`, for which, in [1], the Papp B→A at 2 h, 3 µM was 47.9 ×10⁻⁶ cm/s. Moreover, the Papp in data set [2] was 57.5 ×10⁻⁶ cm/s. For the same compound, the efflux ratio at 2 h, 3 µM in [3] came out at 24.1. The Papp A→B at 2 h, 3 µM in [4] turned out to be 2 ×10⁻⁶ cm/s.

With `CNC(=O)c1c(-c2ccc(F)cc2)oc2cc(N(CCO)S(C)(=O)=O)c(-c3cccc(C(=O)NC4(c5ccccc5)CC4)c3)cc12`, the Stability in data set [5] is recorded as 0.6%; in data set [6], 63%.

With `CNC(=O)c1c(-c2ccc(F)cc2)oc2cc(N(CCO)S(C)(=O)=O)c(-c3cccc(C(=O)NC4(c5ccccn5)CC4)c3)cc12`, the values for the Stability in data set [5] and in data set [6] were 8.7% and 99%, respectively.

Turning to `CNC(=O)c1c(-c2ccc(F)cc2)oc2ccc(-c3cccc(C(=O)NC4(c5ccccn5)CC4)c3)cc12`, the Stability is on record as 54% in data set [5] and 91% in [6].

For `CCNc1cc2oc(-c3ccc(F)cc3)c(C(=O)NC)c2cc1-c1ccc(OC)c(C(=O)NC2(c3ncccn3)CC2)c1`, in [1], the Papp B→A at 2 h, 3 µM was 17.6 ×10⁻⁶ cm/s. The concentration in data set [7] peaked (Cmax) at 776 nM. Also, the results for the half-life in [8], in [10] and in data set [13] were 4.7 h, 0.6 h and 0.65 h, respectively. In addition, the Tmax in data set [9] worked out at 5.3 h. For the same compound, the concentration at 24 h in [11] worked out at 391 nM. Also, the Vd in data set [12] was 4 L/kg. The compound also displayed a clearance in [14] of 11 mL/min/kg. Further, the concentration at 5 h in [15] was found to be 5260 nM. In addition, the Papp in data set [2] is 72 ×10⁻⁶ cm/s. For the same compound, in data set [3], the efflux ratio at 2 h, 3 µM turned out to be 0.8. Further, the AUC in [16] was found to be 7.8 µM·h. In data set [4], the Papp A→B at 2 h, 3 µM is 23.2 ×10⁻⁶ cm/s. In data set [17], the bioavailability was 57%.

Consider `CCN(c1cc2oc(-c3ccc(F)cc3)c(C(=O)NC)c2cc1-c1ccc(OC)c(C(=O)NC2(c3ncccn3)CC2)c1)S(C)(=O)=O`, for which the Papp B→A at 2 h, 3 µM in data set [1] was 18.5 ×10⁻⁶ cm/s. In data set [7], this compound registered a Cmax of 223 nM. Moreover, the results for the half-life in data set [8], in data set [10] and in data set [13] were 1.6 h, 1.52 h and greater than 2 h, respectively. In addition, in data set [9], the Tmax amounted to 1.9 h. Besides, the Vd in data set [12] was found to be 14 L/kg. Further, the clearance in data set [14] stood at 60 mL/min/kg. Also, the concentration at 5 h in data set [15] is 1180 nM. Moreover, the Papp in data set [2] is 48.7 ×10⁻⁶ cm/s. Also, in data set [3], the efflux ratio at 2 h, 3 µM was greater than 12.4. The AUC in data set [16] was found to be 0.74 µM·h. Moreover, the Papp A→B at 2 h, 3 µM in data set [4] was less than 1.5 ×10⁻⁶ cm/s. In addition, the bioavailability in [17] turned out to be 20%.

Take `CCN(C(C)=O)c1cc2oc(-c3ccc(F)cc3)c(C(=O)NC)c2cc1-c1ccc(OC)c(C(=O)NC2(c3ncccn3)CC2)c1`: the Papp B→A at 2 h, 3 µM in data set [1] worked out at 30.8 ×10⁻⁶ cm/s. In addition, the Papp in data set [2] turned out to be 46.6 ×10⁻⁶ cm/s. Moreover, the efflux ratio at 2 h, 3 µM in data set [3] is greater than 20.5. The Papp A→B at 2 h, 3 µM in [4] was less than 1.5 ×10⁻⁶ cm/s.

As to `CCN(c1cc2oc(-c3ccc(F)cc3)c(C(=O)NC)c2cc1-c1cc(C)c(OC)c(C(=O)NC2(c3ncccn3)CC2)c1)S(C)(=O)=O`, the Papp B→A at 2 h, 3 µM in data set [1] came to 32.2 ×10⁻⁶ cm/s. Further, in data set [2], the Papp amounted to 40.9 ×10⁻⁶ cm/s. In addition, the efflux ratio at 2 h, 3 µM in data set [3] came out at 9.8. In addition, in [4], the Papp A→B at 2 h, 3 µM stood at 3.3 ×10⁻⁶ cm/s.

Turning to `CCN(C(=O)OC)c1cc2oc(-c3ccc(F)cc3)c(C(=O)NC)c2cc1-c1ccc(OC)c(C(=O)NC2(c3ncccn3)CC2)c1`, in data set [1], the Papp B→A at 2 h, 3 µM was 23.2 ×10⁻⁶ cm/s. The Papp in data set [2] worked out at 66 ×10⁻⁶ cm/s. Moreover, the efflux ratio at 2 h, 3 µM in data set [3] was 9.6. Moreover, the Papp A→B at 2 h, 3 µM in data set [4] was 2.4 ×10⁻⁶ cm/s.

`CCN(c1cc2oc(-c3ccc(F)cc3)c(C(=O)NC)c2cc1-c1cccc(C(=O)NC2(c3ncccn3)CC2)c1)S(C)(=O)=O`: in data set [1], the Papp B→A at 2 h, 3 µM came out at 13 ×10⁻⁶ cm/s. Besides, the half-life in [10] is greater than 2 h; in data set [13], 0.817 h. Also, the Stability in data set [5] is listed as 91%; in [6], 100%. Besides, in data set [3], the efflux ratio at 2 h, 3 µM was greater than 8.6. Besides, in data set [4], the Papp A→B at 2 h, 3 µM is less than 1.5 ×10⁻⁶ cm/s.

Turning to `CCN(c1cc2oc(-c3ccc(F)cc3)c(C(=O)NC)c2cc1-c1cc(F)c(OC)c(C(=O)NC2(c3ncccn3)CC2)c1)S(C)(=O)=O`, in data set [1], the Papp B→A at 2 h, 3 µM was 40.6 ×10⁻⁶ cm/s. Also, the Papp in [2] was found to be 65.9 ×10⁻⁶ cm/s. For the same compound, the efflux ratio at 2 h, 3 µM in data set [3] is 13.8. For the same compound, the Papp A→B at 2 h, 3 µM in [4] came out at 2.9 ×10⁻⁶ cm/s.

In the case of `CCN(C(=O)C(F)(F)F)c1cc2oc(-c3ccc(F)cc3)c(C(=O)NC)c2cc1-c1ccc(OC)c(C(=O)NC2(c3ncccn3)CC2)c1`, the Papp B→A at 2 h, 3 µM in [1] was found to be 11.5 ×10⁻⁶ cm/s. Further, the Papp in data set [2] turned out to be 83.5 ×10⁻⁶ cm/s. For the same compound, the efflux ratio at 2 h, 3 µM in data set [3] worked out at 2.7. Further, in data set [4], the Papp A→B at 2 h, 3 µM turned out to be 4.2 ×10⁻⁶ cm/s.

Consider `CCN(c1cc2oc(-c3ccc(F)cc3)c(C(=O)NC)c2cc1-c1cc(Cl)c(OC)c(C(=O)NC2(c3ncccn3)CC2)c1)S(C)(=O)=O`, for which the Papp B→A at 2 h, 3 µM in [1] was 11.4 ×10⁻⁶ cm/s. The half-life in data set [10] worked out at 0.232 h; in data set [13], 0.433 h. The concentration at 5 h in data set [15] is 7180 nM; in [18], 277 nM. Besides, the Papp in data set [2] turned out to be 82.1 ×10⁻⁶ cm/s. Besides, the efflux ratio at 2 h, 3 µM in data set [3] is 2.2. In [4], the Papp A→B at 2 h, 3 µM was 5.2 ×10⁻⁶ cm/s.

One may read the efflux ratio as a quotient of directional permeabilities that is used to spot active efflux. What is called Cmax is the peak of the concentration-time curve. Broadly, the half-life is the time in which the quantity being followed falls by half. As usually defined, the Tmax is the time from dosing to the highest level. The term clearance denotes the volume of plasma or blood freed of the substance per unit of time. A low value points to inefficient removal. One may read the AUC as concentration integrated over time. The bioavailability is the share of a dose that reaches the circulation, judged against a reference dose that is usually intravenous.

Values taken from ChEMBL document CHEMBL4325928, “Structure-Property Basis for Solving Transporter-Mediated Efflux and Pan-Genotypic Inhibition in HCV NS5B Inhibitors” (ACS Med Chem Lett, 2018).
